Laboratory results reported in US9637493B2, “Substituted pyrrolopyrimidines as HDM2 inhibitors” (Merck Sharp & Dohme Corp., priority 2012, dated 2017).

Target: HDM2 (Homo sapiens (Human), UniProt Q00987)
Assay: HDM2 FRET assay (inhibition of p53 peptide binding to HDM2)
Conditions: truncated HDM2 residues 17 to 125, 0.5 nM; FITC labeled 8-mer peptide 3 nM; two hour incubation at room temperature
Experimental: Methods: An HDM2 FRET assay was developed to assess the compounds' inhibitory activity towards binding of p53 protein. […] (containing p53 binding surface, Science (1994) 265, 346-355), with N-terminal His and Thioredoxin tag was generated in pET32a expression vector and expressed in E. coli strain BL21(DE3)Rosetta. Protein was purified using Ni-affinity chromatography, followed by size exclusion chromatography using Superdex 75 26/60 column. […] After two hour incubation at room temperature in a humidified chamber plates were read on EnVision plate reader with the following settings: excitation: UV, […], two emission filters: 520 nm and 495 nm respectively. […] IC50 DETERMINATIONS: Dose-response curves were plotted from the inhibition data, from 10 point serial dilutions of inhibitory compounds. Concentration of compound was plotted against em520/Cem495 ratio signal. To generate IC50 values, the dose-response curves were fitted to a standard sigmoidal curve and IC50 values were derived by nonlinear regression analysis.

HDM2, sequence (Q00987 17-125): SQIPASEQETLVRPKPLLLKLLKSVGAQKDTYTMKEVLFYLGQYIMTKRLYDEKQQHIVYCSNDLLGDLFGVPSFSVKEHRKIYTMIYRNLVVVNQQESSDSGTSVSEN

| SMILES | IC50 |
| --- | --- |
| C[C@H]1CC[C@H](Cn2cc(CCc3cccnc3)c3nc(C(=O)O)nc(-c4cncc(Cl)c4)c32)CC1 [Example 6.1, 4-(5-chloropyridin-3-yl)-5-[(trans-4-methylcyclohexyl)methyl]-7-(2-pyridin-3-ylethyl)-5H-pyrrolo[3,2-d]pyrimidine-2-carboxylic acid] | 47 nM |
| C[C@H]1CC[C@H](Cn2cc(CCc3cccnc3)c3nc(-c4noc(=O)[nH]4)nc(-c4cncc(Cl)c4)c32)CC1 [Example 6.2, 3-[4-(5-chloropyridin-3-yl)-5-[(trans-4-methylcyclohexyl)methyl]-7-(2-pyridin-3-ylethyl)-5H-pyrrolo[3,2-d]pyrimidin-2-yl]-1,2,4-oxadiazol-5(4H)-one] | 13 nM |
| C[C@H]1CC[C@H](Cn2cc(Cc3cccnc3)c3nc(-c4noc(=O)[nH]4)nc(-c4cncc(Cl)c4)c32)CC1 [Example 7.1, 3-[4-(5-chloropyridin-3-yl)-5-[(trans-4-methylcyclohexyl)methyl]-7-(pyridin-3-ylmethyl)-5H-pyrrolo[3,2-d]pyrimidin-2-yl]-1,2,4-oxadiazol-5(4H)-one] | 52 nM |
| C[C@H]1CC[C@H](Cn2c(C(F)c3ccccc3F)cc3nc(-c4noc(=O)[nH]4)nc(-c4cncc(Cl)c4)c32)CC1 (stereo partly drawn) [Example 8.2, 3-{4-(5-chloropyridin-3-yl)-6-[fluoro(2-fluorophenyl)methyl]-5-[(trans-4-methylcyclohexyl)methyl]-5H-pyrrolo[3,2-d]pyrimidin-2-yl}-1,2,4-oxadiazol-5(4H)-one] | 2 nM |
